From the NIST ThermoML archive (doi:10.1021/je7000182)

Assay: xn = mol fraction of the nth substance listed
Conditions: for mass density: 101 kPa, Liquid

CC(C)=O [acetone] + O
surface tension liquid-gas [mN/m], Pendant drop shape
Conditions | 288.15 K | 298.15 K | 308.15 K | 318.15 K | 328.15 K
x1 = 0.0099 | 62.59 | 61.04 | 59.26 | 58.11 | 57.74
x1 = 0.05 | 47.85 | 46.14 | 44.78 | 43.74 | 42.86
x1 = 0.0999 | 40.32 | 39.07 | 37.88 | 36.87 | 35.71
x1 = 0.15 | 35.72 | 34.41 | 33.13 | 32.02 | 30.76
x1 = 0.1999 | 33.71 | 32.21 | 30.74 | 29.4 | 28.31
x1 = 0.2999 | 30.6 | 29.35 | 28.08 | 26.98 | 25.68
x1 = 0.4 | 29.19 | 27.98 | 26.78 | 25.47 | 24.23
x1 = 0.4999 | 28.24 | 27.04 | 25.82 | 24.53 | 23.28
x1 = 0.5999 | 27.29 | 26.03 | 24.81 | 23.63 | 22.26
x1 = 0.6999 | 26.71 | 25.44 | 24.25 | 22.94 | 21.73
x1 = 0.7999 | 25.78 | 24.51 | 23.2 | 22.02 | 20.9
x1 = 0.8999 | 25.06 | 23.8 | 22.56 | 21.19 | 20.19
x1 = 1 | 24.34 | 23.02 | 21.72 | 20.38 | 19.15

mass density [kg/m3]
Conditions | 288.15 K | 293.15 K | 298.15 K | 303.15 K | 308.15 K | 313.15 K | 318.15 K | 323.15 K | 328.15 K
x1 = 0.0099 | 994.9 | 993.87 | 992.55 | 991 | 989.16 | 987.26 | 985.07 | 982.76 | 980.29
x1 = 0.05 | 981.27 | 979.34 | 977.21 | 974.89 | 972.41 | 969.77 | 966.73 | 963.1 | 959.94
x1 = 0.1 | 965.81 | 962.9 | 959.83 | 956.64 | 953.33 | 949.91 | 946.37 | 942.68 | 938.87
x1 = 0.15 | 950.41 | 946.79 | 943.05 | 939.23 | 935.32 | 931.31 | 927.21 | 923 | 918.72
x1 = 0.2 | 935.61 | 931.54 | 927.37 | 923.1 | 918.78 | 914.37 | 909.89 | 905.19 | 900.64
x1 = 0.3 | 907.7 | 903.09 | 898.35 | 893.54 | 888.68 | 883.75 | 878.76 | 873.7 | 868.56
x1 = 0.4 | 884.77 | 879.81 | 874.8 | 869.68 | 864.53 | 859.33 | 854.06 | 848.74 | 843.31
x1 = 0.5 | 863.71 | 858.56 | 853.35 | 848.07 | 842.72 | 837.31 | 831.85 | 826.32 | 820.73
x1 = 0.6 | 845.83 | 840.53 | 835.15 | 829.71 | 824.22 | 818.66 | 813.05 | 807.35 | 801.6
x1 = 0.7 | 830.7 | 825.3 | 819.8 | 814.25 | 808.63 | 802.96 | 797.22 | 791.42 | 785.55
x1 = 0.8 | 818.04 | 812.56 | 806.97 | 801.32 | 795.62 | 789.84 | 784.05 | 778.16 | 772.2
x1 = 0.9 | 805.86 | 800.27 | 794.6 | 788.88 | 783.11 | 777.29 | 771.4 | 765.46 | 759.81
x1 = 1 | 795.65 | 790.04 | 784.33 | 778.57 | 772.76 | 766.91 | 760.99 | 755.02 | 748.98

CC(C)=O [acetone] + Cc1ccccc1
Conditions | mass density [kg/m3] | surface tension liquid-gas [mN/m]
288.15 K, x1 = 0.1 | 866.62 | 28.54
288.15 K, x1 = 0.2 | 861.43 | 27.86
288.15 K, x1 = 0.3 | 855.6 | 27.32
288.15 K, x1 = 0.4 | 849.5 | 26.98
288.15 K, x1 = 0.5 | 842.16 | 26.58
288.15 K, x1 = 0.6 | 834.94 | 25.91
288.15 K, x1 = 0.6999 | 826.67 | 25.22
288.15 K, x1 = 0.8 | 817.43 | 24.68
288.15 K, x1 = 0.9 | 807.56 | 24.24
288.15 K, x1 = 1 | 795.65 | 24.34
293.15 K, x1 = 0.1 | 861.94 | –
293.15 K, x1 = 0.2 | 856.62 | –
293.15 K, x1 = 0.3 | 850.69 | –
293.15 K, x1 = 0.4 | 844.49 | –
293.15 K, x1 = 0.5 | 837.08 | –
293.15 K, x1 = 0.6 | 829.76 | –
293.15 K, x1 = 0.6999 | 821.37 | –
293.15 K, x1 = 0.8 | 812.03 | –
293.15 K, x1 = 0.9 | 802.05 | –
293.15 K, x1 = 1 | 790.04 | –
298.15 K, x1 = 0.1 | 857.19 | 27.42
298.15 K, x1 = 0.2 | 851.77 | 26.78
298.15 K, x1 = 0.3 | 845.76 | 26.27
298.15 K, x1 = 0.4 | 839.43 | 25.87
298.15 K, x1 = 0.5 | 831.96 | 25.26
298.15 K, x1 = 0.6 | 824.52 | 24.69
298.15 K, x1 = 0.6999 | 816.05 | 24.14
298.15 K, x1 = 0.8 | 806.58 | 23.46
298.15 K, x1 = 0.9 | 796.47 | 23.01
298.15 K, x1 = 1 | 784.33 | 23.02
303.15 K, x1 = 0.1 | 852.43 | –
303.15 K, x1 = 0.2 | 846.92 | –
303.15 K, x1 = 0.3 | 840.8 | –
303.15 K, x1 = 0.4 | 834.37 | –
303.15 K, x1 = 0.5 | 826.83 | –
303.15 K, x1 = 0.6 | 819.3 | –
303.15 K, x1 = 0.6999 | 810.71 | –
303.15 K, x1 = 0.8 | 801.09 | –
303.15 K, x1 = 0.9 | 790.88 | –
303.15 K, x1 = 1 | 778.57 | –
308.15 K, x1 = 0.1 | 847.66 | 26.25
308.15 K, x1 = 0.2 | 842.06 | 25.78
308.15 K, x1 = 0.3 | 835.83 | 25.21
308.15 K, x1 = 0.4 | 829.3 | 24.88
308.15 K, x1 = 0.5 | 821.64 | 24.2
308.15 K, x1 = 0.6 | 814 | 23.59
308.15 K, x1 = 0.6999 | 805.29 | 22.92
308.15 K, x1 = 0.8 | 795.56 | 22.51
308.15 K, x1 = 0.9 | 785.21 | 21.83
308.15 K, x1 = 1 | 772.76 | 21.72
313.15 K, x1 = 0.1 | 842.86 | –
313.15 K, x1 = 0.2 | 837.17 | –
313.15 K, x1 = 0.3 | 830.83 | –
313.15 K, x1 = 0.4 | 824.2 | –
313.15 K, x1 = 0.5 | 816.43 | –
313.15 K, x1 = 0.6 | 808.68 | –
313.15 K, x1 = 0.6999 | 799.88 | –
313.15 K, x1 = 0.8 | 790.01 | –
313.15 K, x1 = 0.9 | 779.49 | –
313.15 K, x1 = 1 | 766.91 | –
318.15 K, x1 = 0.1 | 838.04 | 24.97
318.15 K, x1 = 0.2 | 832.23 | 24.75
318.15 K, x1 = 0.3 | 825.82 | 24.09
318.15 K, x1 = 0.4 | 819.06 | 23.74
318.15 K, x1 = 0.5 | 811.19 | 22.82
318.15 K, x1 = 0.6 | 803.32 | 22.67
318.15 K, x1 = 0.6999 | 794.39 | 21.7
318.15 K, x1 = 0.8 | 784.39 | 21.34
318.15 K, x1 = 0.9 | 773.74 | 20.48
318.15 K, x1 = 1 | 760.99 | 20.38
323.15 K, x1 = 0.1 | 833.22 | –
323.15 K, x1 = 0.2 | 827.29 | –
323.15 K, x1 = 0.3 | 820.75 | –
323.15 K, x1 = 0.4 | 813.89 | –
323.15 K, x1 = 0.5 | 805.91 | –
323.15 K, x1 = 0.6 | 797.91 | –
323.15 K, x1 = 0.6999 | 788.88 | –
323.15 K, x1 = 0.8 | 778.74 | –
323.15 K, x1 = 0.9 | 767.94 | –
323.15 K, x1 = 1 | 755.02 | –
328.15 K, x1 = 0.1 | 828.34 | 23.63
328.15 K, x1 = 0.2 | 822.32 | 23.48
328.15 K, x1 = 0.3 | 815.67 | 23.04
328.15 K, x1 = 0.4 | 808.7 | 22.7
328.15 K, x1 = 0.5 | 800.59 | 21.99
328.15 K, x1 = 0.6 | 792.48 | 21.06
328.15 K, x1 = 0.6999 | 783.31 | 20.65
328.15 K, x1 = 0.8 | 773.01 | 19.95
328.15 K, x1 = 0.9 | 762.08 | 19.32
328.15 K, x1 = 1 | 748.98 | 19.15
